# Values of other authors, collected in patent US11325978B2, “Compositions and methods for treating beta-globinopathies” (priority 2018, dated 2022).
# System: RIOK3
# Settings: collection of 72 inhibitors against 456 human kinases (Davis et al. 2011)
compound,measurement,value
"COc1cc(Nc2c(C#N)cnc3cc(OCCCN4CCN(C)CC4)c(OC)cc23)c(Cl)cc1Cl [bosutinib, Bosutinib]",inhibition of RIOK3 kinase activity,inhibit RIOK3 kinase activity
